Data reported in patent EP4778929A1, “NOVEL TYPE I TOPOISOMERASE INHIBITOR, AND PREPARATION METHOD THEREFOR AND USE THEREOF” (priority 2023, dated 2025).
Read-outs that look alike come from different tables or passages of the source.

Legend:
in vivo = settings: male, CD-1, mouse
Procedure: Test Example 3. Pharmacokinetic Study for Determining Compound Concentrations in Mice by LC-MS/MS
Principle: LC-MS/MS is used to quantify the plasma concentrations of the test article at successive time points, generating an in-vivo pharmacokinetic profile.
Procedure: The test compound was dissolved in DMSO to prepare a 10 mg/mL stock solution. This stock was further diluted to 1 mg/mL with a vehicle consisting of 10 % DMSO + 10 % Solutol HS-15 + 80 % saline. Male CD-1 mice (JH Laboratory Animal Co., LTD) were employed; six animals were assigned per compound group. […] Serial blood samples (~50 µL whole blood, K2EDTA anticoagulant) were collected at 0.083, 0.25, 0.5, 1, 2, 4, 8 and 24 h (three mice per time point in a crossover design). Blood was centrifuged at 6 000 g for 5 min at 4 °C; plasma was harvested and stored at -70 °C until analysis. Plasma drug concentrations were determined by LC-MS/MS.
Calibration Curve and QC Preparation: Working solutions were prepared by dilution with MeOH:H2O (1:1). For each calibration or QC level, 3 µL of working solution was spiked into 57 µL of blank mouse plasma.
Sample Processing: To 30 µL of plasma was added 200 µL of methanol containing the internal standard (propranolol, 40 ng mL^-1). After vortex-mixing for 1 min, the mixture was centrifuged at 12 000 rpm for 10 min. A 100 µL aliquot of the supernatant was transferred to a clean plate for injection.
Pharmacokinetic Analysis: Concentration-time data were analyzed with WinNonlin 8.2 using a non-compartmental approach to derive PK parameters including Cmax, Tmax, AUC and terminal elimination half-life (t1/2). AUC was calculated by the linear-up/log-down trapezoidal method. Table 3. Pk parameters of compounds

[1] = system: Human colon cancer HCT116 cells; assay: Subcutaneous xenograft model of human colon cancer HCT-116 cells; type: in vivo, BALB/c nude mice; settings: day 21 post-treatment, 5 mg/kg, IV, BIW×3W; for tumor volume: vehicle control 1146 mm^3
Procedure: Test Example 4. Pharmacodynamic Evaluation of Compound 2, Compound 250, and Compound 253 in a Subcutaneous Xenograft Model of Human Colon Cancer HCT-116 Cells in BALB/c Female Nude Mice
Human colon cancer HCT116 cells were cultured in vitro as monolayers in McCoys 5a medium supplemented with 10% fetal bovine serum and 1% penicillin/streptomycin/amphotericin B at 37 °C in a 5% CO2 incubator. Cells were routinely passaged twice a week using trypsin-EDTA digestion. When cells reached 80%-90% confluence and the required cell number was achieved, cells were harvested. HCT116 cells (0.1 mL, 5×10^6 cells) were subcutaneously inoculated into the right dorsal region near the upper forelimb of each mouse (BALB/c nude mice, female, 6-8 weeks old). Treatment was initiated when the average tumor volume reached approximately 158 mm^3. Tumor volume was measured twice weekly. At the end of the experiment, the tumor growth inhibition rate (TGI) was calculated as: TGI (%) = [1 - (average tumor volume at the end of treatment in a particular group - average tumor volume at the start of treatment in that group) / (average tumor volume at the end of treatment in the vehicle control group - average tumor volume at the start of treatment in the vehicle control group)] × 100%.
(§1) Experimental Groups and Dosing Regimen:
• 1, Vehicle control group • 2, Compound 2, 5 mg/kg, IV, BIW×3W • 3, Compound 250, 5 mg/kg, IV, BIW×3W • 4, Compound 253, 5 mg/kg, IV, BIW×3W

[2] = system: Human colon cancer CR00090 cells; assay: CR00090 human colon cancer model (subcutaneous); type: in vivo, NPSG mice; settings: day 28 post-treatment, 5 mg/kg, IV, BIW×4W; for tumor volume: vehicle control 1093 mm^3
Procedure: Test Example 5: Pharmacodynamic Evaluation of Compound 117, Compound 250, and Compound 253 in the CR00090 Human Colon Cancer Model
Human colon cancer CR00090 cells were thawed, counted, and mixed with Matrigel at a 1:1 ratio. Then, 0.1 mL (5×10^5 cells) of CR00090 cells were subcutaneously inoculated into the right dorsal region near the upper forelimb of each mouse (NPSG mice, female, 6-8 weeks old). Treatment was initiated when the average tumor volume reached approximately 84 mm^3. Tumor volume was measured twice weekly. At the end of the experiment, the tumor growth inhibition rate (TGI) was calculated as: TGI (%) = [1 - (average tumor volume at the end of treatment in a particular group - average tumor volume at the start of treatment in that group) / (average tumor volume at the end of treatment in the vehicle control group - average tumor volume at the start of treatment in the vehicle control group)] × 100%.
as §1
• 1, Vehicle control group • 2, Compound 117, 5 mg/kg, IV, BIW×4W • 3, Compound 250, 5 mg/kg, IV, BIW×4W • 4, Compound 253, 5 mg/kg, IV, BIW×4W

HCT116 cells = assay: Inhibition of cell proliferation by CTG (CellTiter-Glo) luminescence assay; type: cell-based; settings: Homo sapiens, read-out: HCT116, IC50
Outline: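 Nine-point 1:3 dilutions applied to HCT116 cells (2 000/well, McCoy's 5a + 10 % FBS) for 72 h at 37 °C, final DMSO 0.25 %. Viability read by CellTiter-Glo luminescence; % inhibition versus DMSO controls fitted to four-parameter logistic for IC50.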

topoisomerase I (Topo I) = target: T1, topoisomerase I (Topo I) (Homo sapiens, UniProt P11387); assay: Topo I enzyme-inhibitory activity by agarose-gel electrophoresis (plasmid relaxation); type: biochemical
T1 sequence (P11387 1-765): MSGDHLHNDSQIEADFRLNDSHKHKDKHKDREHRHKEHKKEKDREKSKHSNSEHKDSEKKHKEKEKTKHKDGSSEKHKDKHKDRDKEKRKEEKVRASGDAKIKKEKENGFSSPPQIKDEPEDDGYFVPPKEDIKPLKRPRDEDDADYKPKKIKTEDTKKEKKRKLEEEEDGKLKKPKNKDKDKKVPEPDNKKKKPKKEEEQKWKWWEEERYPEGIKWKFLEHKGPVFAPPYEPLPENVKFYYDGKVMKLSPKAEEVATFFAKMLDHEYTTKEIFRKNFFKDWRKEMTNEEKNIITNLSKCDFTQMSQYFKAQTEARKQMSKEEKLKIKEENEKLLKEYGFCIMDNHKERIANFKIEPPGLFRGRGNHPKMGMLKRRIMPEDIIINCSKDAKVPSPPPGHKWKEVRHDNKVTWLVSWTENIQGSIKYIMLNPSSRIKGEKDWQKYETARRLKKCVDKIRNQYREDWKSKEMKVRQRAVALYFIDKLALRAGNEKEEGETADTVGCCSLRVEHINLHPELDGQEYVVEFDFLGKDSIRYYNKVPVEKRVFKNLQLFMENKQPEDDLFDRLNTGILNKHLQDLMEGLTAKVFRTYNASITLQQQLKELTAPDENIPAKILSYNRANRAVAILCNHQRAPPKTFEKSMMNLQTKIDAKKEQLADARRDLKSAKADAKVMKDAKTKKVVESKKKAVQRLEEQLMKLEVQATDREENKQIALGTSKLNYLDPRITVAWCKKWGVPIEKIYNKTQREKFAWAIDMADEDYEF
Outline: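 Supercoiled pNO1 plasmid (0.5 µg) was relaxed by Topo I (0.75 U) in 20 mM Tris-HCl pH 7.5, 200 mM NaCl, 0.25 mM EDTA, 5 % glycerol, 5 % DMSO final, for 30 min at 37 °C. Supercoiled band intensity on agarose gel was normalized to no-enzyme and vehicle controls. IC50 from a four-parameter logistic fit.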

[3] = HCT-116, 72 h incubation, CellTiter-Glo
[4] = read-out: inhibition of topoisomerase I (Topo I) enzymatic activity, IC50; 0.75 U Topo I, pNO1 plasmid, 37 °C, 30 min; compounds listed by group (Group A / Group B)
[5] = 0.75 U Topo I, pNO1 plasmid, 37 °C, 30 min; compounds listed by group (Group A / Group B); read-out: inhibition of topoisomerase I (Topo I) enzymatic activity, IC50

## CC[C@@]1(O)C(=O)OCc2c1cc1n(c2=O)Cc2c-1c(=O)c1cc(F)ccc1n2[C@@H]1CCN(C)C1 [Example 250, (S)-4-ethyl-8-fluoro-4-hydroxy-11-((R)-1-methylpyrrolidin-3-yl)-1,12-dihydro-14H-pyrano[3',4':6,7]indolizino[2,1-b] quinoline-3,6,14(4H,11H)-trione]
In vivo
  bioavailability: 35.9%
In vivo; iv, 2 mg/kg
  AUC(0-t): 543 ng·h/mL
  Cmax: 1210 ng/mL
  clearance: 62.9 mL/min/kg
  half-life: 17.9 min
In vivo; po, 20 mg/kg
  AUC(0-t): 1930 ng·h/mL
  Cmax: 1120 ng/mL
  Tmax: 30 min
  half-life: 231 min
[1]
  TGI: 83.1%
  tumor volume: 326 mm^3
[2]
  TGI: 80.0%
  tumor volume: 286 mm^3
HCT116 cells; [3]
  IC50: < 20 nM

## CC[C@@]1(O)C(=O)OCc2c1cc1n(c2=O)Cc2c-1c(=O)c1cc(F)ccc1n2[C@@H]1CCN(C2CCC2)C1 [Example 253, (S)-4-ethyl-8-fluoro-4-hydroxy-11-((R)-1-cyclobutylpyrrolidin-3-yl)-1,12-dihydro-14H-pyrano[3',4':6,7]indolizino[2,1-b]quinoline-3,6,14(4H,11H)-trione]
[1]
  TGI: 80.6%
  tumor volume: 351 mm^3
[2]
  TGI: 76.3%
  tumor volume: 323 mm^3
HCT116 cells; [3]
  IC50: < 20 nM

## CC[C@@]1(O)C(=O)OCc2c1cc1n(c2=O)Cc2c-1c(=O)c1cc(F)c(C)cc1n2-c1ccc(N)cc1 [Example 68, (S)-11-(4-aminophenyl)-4-ethyl-8-fluoro-4-hydroxy-9-methyl-1,12-dihydro-14H-pyrano[3,4:6,7]indolizino[2,1-b]quinoline-3,6,14 (4H,11H)-trione]
HCT116 cells; HCT-116, 72 h
  IC50: < 20 nM
Topoisomerase I (Topo I); [4]
  IC50: 200 to 500 nM

## CC[C@@]1(O)C(=O)OCc2c1cc1n(c2=O)Cc2c-1c(=O)c1cc(F)cc(C)c1n2CCN(C1CCCC1)C1CC1 [Example 171]
HCT116 cells; HCT-116, 72 h
  IC50: < 20 nM
Topoisomerase I (Topo I); [4]
  IC50: 200 to 500 nM

## CC[C@@]1(O)C(=O)OCc2c1cc1n(c2=O)Cc2c-1c(=O)c1cc(F)ccc1n2CCNC1CCCC1(C)C (some centres unmarked) [Example 138]
HCT116 cells; HCT-116, 72 h
  IC50: < 20 nM
Topoisomerase I (Topo I); [4]
  IC50: 200 to 500 nM

## CC[C@@]1(O)C(=O)OCc2c1cc1n(c2=O)Cc2c-1c(=O)c1cc(F)c(N)cc1n2-c1cc(OC)cc(C(C)C)c1 [Example 355]
HCT116 cells; [3]
  IC50: < 20 nM
Topoisomerase I (Topo I); [5]
  IC50: 200 to 500 nM

## CC[C@@]1(O)C(=O)OCc2c1cc1n(c2=O)Cc2c-1c(=O)c1ccccc1n2C [Example 1, (S)-4-ethyl-4-hydroxy-11-methyl-1,12-dihydro-14H-pyrano[3,4:6,7]indolizino[2,1 - b]quinoline-3,6,14(4H,11H)-trione]
HCT116 cells; [3]
  IC50: < 20 nM
Topoisomerase I (Topo I); [5]
  IC50: < 200 nM
